Test results taken from US20260217659A1, “COMPOUNDS, COMPOSITIONS AND USES THEREOF IN THE TREATMENT AND PREVENTION OF DISEASES AND CONDITIONS ASSOCIATE WITH OR AGGRAVATED BY IMPAIRED MITOPHAGY OR OXIDATIVE STRESS” (Yissum Research Development Company of The Hebrew …, priority 2023, published 2026).

Columns and labels:
Huh-7 cells = test: Huh-7 cell survival, MTT assay; type: cell-based, human; conditions: 72 h
Method: Huh-7 cells (2000 per well, in 96-wells plate) were treated with 100 μM of each compound. Cell viability was measured by MTT assay after 72 h. Asterisks represent a comparison to vehicle control. ****p<0.0001. N=3 biological repeats. Error bars represent SEM.
(§1) FIGS. 5A-5D show how ST-480 and CQ kill Huh-7 cells in a dose-dependent manner. (5A) Surviving curves in 200 mM paraquat (PQ). Worms were treated with ST-480 at the indicated concentrations or with the vehicle as a control for 48 h. Afterward, they were treated with 200 mM PQ, and their survival was measured after 3 and 6 h. N=6 biological repeats, P values are indicated (compared with the vehicle control). Bar graphs displaying the survival of Huh-7 cells in different doses of CQ (4B) and ST-480 (5C) —the experimental setup was similar to that described in FIG. 1. Asterisks represent a comparison to vehicle control. N=3 biological repeats. (5D) Bar graph showing the combined effect of ST-480 and CQ on Huh-7 cells' survival after 72 h. *p<0.05, ***p<0.001, ****p<0.0001. N=3 biological repeats. *Error bars represent SEM.
ST-480, is one of the diamine compounds of the invention that inhibits liver cancer cell viability. […] Therefore, the activity of the polyamine compound of the invention in liver cancer therapy. To explore this, the inventors screened the effect of eight new compounds. In addition, the effect of two compounds in the context of lifespan, health-span, and proteotoxicity, i.e., the diamines VL-004 and VL-850 were examined, and the natural polyamine spermidine (Spd). Huh-7 cells (derived from hepatocellular carcinoma of a person) were exposed to 100 μM of each compound and examined their survival after 72 h using an MTT assay.
Chloroquine (CQ) has been used safely to treat malaria and to suppress autophagic flux. Moreover, as indicated above, it induces DNA damage and apoptosis in cancer cells. The effect of different CQ concentrations on Huh-7 cells' survival after 72 h were tested. In parallel, dose-response experiments testing ST-480 toxicity in these cells were performed.

Hep-3B cells [1] = test: Hep-3B cell survival; type: cell-based, human; conditions: single agent, 72 h
Method: (§2) FIGS. 6A-6E show how ST-480 and CQ effectively kill Hep-3B cancer cells. Bar graphs displaying the effects of ST-480 (6A) and CQ (6B) and their combined effect 6C) on Hep-3B cells' survival after 72 h—the experimental setup was similar Asterisks represent a comparison to vehicle control (6A and 6B) or towards (the same CQ concentration under vehicle treatment conditions (5C). *p<0.05, **p<0.01, ***p<0.001, ****p<0.0001. N=3 biological repeats. (5D) Representative images show the state of Hep-3B cells treated as described in (6C). Scale bar: 200 μm. (5E) BEAS-2B cells are not sensitive to ST-480, ns-non-significance. N-3. Error bars represent SEM.
(§3) To strengthen these conclusions, the impact of ST-480 and CQ was tested on another liver cancer cell line, namely Hep-3B′ the Hep-3B cell line originated from a person with primary hepatocellular carcinoma (HCC). […] In addition, the combined effect of ST-480 and CQ on Hep-3B survival was tested. […] In this respect, it should be emphasized that ST-480 was not toxic to non-cancer cells.

Hep-3B cells [2] = test: Mitophagy: colocalization of mitochondria and lysosomes in Hep-3B cells; type: cell-based, human; conditions: 100 μM, 6 h
Method: FIGS. 7A-7B show how ST-480 induces mitophagy. (7A) Colocalization of mitochondria and lysosome. Arrowheads indicate representative colocalization. The inset represents an eight-fold enlargement-scale bar: 50 μm. (7B) Colocalization quantification. N=3, ≥412 cells per treatment. *p<0.05, Error bars represent SEM.
ST-480 induces mitophagy in Hep-3B cells. To explore whether ST-480 induces mitophagy, Hep-3B cells were exposed to 100 μM ST-480 or vehicle control for 6 h. To measure mitophagy, the colocalization of mitochondria and lysosomes were quantified using specific mitochondrial and lysosomal dyes. In addition, nuclei were stained using a DNA dye—For this, the Cytopainter ab139487 kit, was used.

C. elegans = test: Survival of worms in 200 mM paraquat (oxidative stress resistance); type: in vivo; conditions: 48 h treatment, then 200 mM paraquat, survival after 3 and 6 h
Method: as §1
Chloroquine (CQ) enhances ST-480 cytotoxicity.

BEAS-2B cells = test: BEAS-2B non-cancer cell survival; type: cell-based; conditions: 70 µM and 100 μM, 72 h
Method: as §2, §3

NCI-H69 cells = test: XTT proliferation inhibition, NCI-H69; type: cell-based; conditions: Homo sapiens, NCI-H69, lung cancer (NSCLC), 72 h
Method: (§4) Cell lines: PANC-1. Organism: Homo sapiens, human/Tissue: Pancreas; Duct/Disease: Epithelioid Carcinoma HUH7. Organism: Homo sapiens, human/Tissue: Liver/Disease: Carcinoma; Hepatocellular NCI-H69. Organism: Homo sapiens, human/Tissue: Lung/Disease: NSCL U87 MG. Organism: Homo sapiens, human/Tissue: Brain/Disease: Glioma
(§5) PANC-1, HUH7, NCI-H69 and U87 MG cells are plated in one 96 well plate each, in their culture medium, at 7500 cells/well. Cells are allowed to attach for 16-24 hours at 37° C., 5% CO2. Thereafter, culture medium is discarded, and fresh culture medium is added to the cells, supplemented with elevating ST-1944 concentrations: 0.4, 2, 10 and 50 μM, 3 wells of each concentration (triplicates). The cells are incubated another 72±2 hours at 37° C., 5% CO2. At the end of incubation period, medium is discarded and 100 μL fresh culture medium is added to the cells along with 50 μL XTT reagent. The OD is measured in a plate reader once Vehicle treated cells are reach the range of 0.5-1.5 OD at 450 nm wavelength.
(§6) PANC-1 and HUH7culture medium: DMEM Medium (4.5 g/L glucose), supplemented with 10% FBS (heat inactivated), 2 mM L-Glutamine, and 1% of Pen/Strep Solution. U87 MG and NCI-H69 culture medium: EMEM Medium, supplemented with 10% FBS (heat inactivated), 2 mM L-Glutamine, and 1% of Pen/Strep Solution. […]

PANC-1 cells = test: XTT proliferation inhibition, PANC-1; type: cell-based; conditions: Homo sapiens, Panc-1, pancreatic cancer, 72 h
Method: as §4, §5, §6

HUH7 cells = test: XTT proliferation inhibition, HUH7; type: cell-based; conditions: Homo sapiens, Huh-7, HUH7, liver cancer (HCC), 72 h
Method: as §4, §5, §6

U87 MG cells = test: XTT proliferation inhibition, U87 MG; type: cell-based; conditions: Homo sapiens, U-87 MG, glioma (GBM), 72 h
Method: as §4, §5, §6

Row | SMILES | Huh-7 cells' survival, dose response (Huh-7 cells; CQ at 7, 8, and 10 μM) | Hep-3B cells' survival (Hep-3B cells [1]) | mitophagy (colocalization of mitochondria and lysosomes) (Hep-3B cells [2]) | Huh-7 cell survival (Huh-7 cells; 100 μM, MTT assay) | Huh-7 cells' survival, dose response (Huh-7 cells; ST-480 at 60, 80, and 100 μM) | resistance to oxidative stress (C. elegans) | cell death of non-cancer BEAS-2B cells (BEAS-2B cells) | IC50 (NCI-H69 cells) [µM] | IC50 (PANC-1 cells) [µM] | IC50 (HUH7 cells) [µM] | IC50 (U87 MG cells) [µM]
1 | CCN(CC)CCCC(C)Nc1ccnc2cc(Cl)ccc12 (stereo not drawn) [CQ, chloroquine, reference compound] | significantly decreased cells' survival | sensitive to both ST-480 and CQ in a dose-dependent manner |  |  |  |  |  |  |  |  | 
2 | NCCCCc1ccccc1CCCCN [ST-480] |  | sensitive to both ST-480 and CQ in a dose-dependent manner | induces mitophagy in a significant manner | significantly decreased Huh-7 cell survival | significantly decreased cells' survival | confer resistance to oxidative stress | did not observe a significant cell death |  |  |  | 
3 | Cn1ccnc1SCCCCc1ccccc1CCCCSc1nccn1C [ST-1944] |  |  |  |  |  |  |  | 10 | 1 | 2 | 10
